Laboratory results from patent US9012443B2 (Amgen Inc., priority 2011, dated 2015).
pIC50: −log10 of the molar value. Counter-ions that a name gives are not always drawn.

What was measured:
[1] = biological target: T1, Nav 1.7 (Homo sapiens (Human), UniProt Q15858); assay: Nav 1.7 IWQ in vitro assay (IonWorks Quattro population patch-clamp); format: cell-based; conditions: 293 cells stably transfected with Nav 1.7; second part of table; read-out: Nav1.7 IWQ IC50 IP
Outline: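 Percent block, measured in duplicate, came from peak minus end-of-pulse current on the 26th −20 mV step, and IC50 was fitted against concentration. Stably transfected 293 cells were recorded in population patch-clamp mode before and after a single test concentration, which was added over 3–8 min while cells were unclamped.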

[2] = biological target: T1, Nav 1.7; assay: Nav 1.7 in vitro PX assay (PatchXpress whole cell voltage clamp); format: cell-based; conditions: 293 cells, human Nav1.7, partially inactivated state; read-out: Nav1.7 PX IC50 IP
Outline: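 Partially inactivated channel state (holding potential for 20–50% inactivation) probed in human Nav1.7-transfected 293 cells by automated patch clamp, test pulse −10 mV for 20 msec.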

T1 sequence (Q15858 whole entry): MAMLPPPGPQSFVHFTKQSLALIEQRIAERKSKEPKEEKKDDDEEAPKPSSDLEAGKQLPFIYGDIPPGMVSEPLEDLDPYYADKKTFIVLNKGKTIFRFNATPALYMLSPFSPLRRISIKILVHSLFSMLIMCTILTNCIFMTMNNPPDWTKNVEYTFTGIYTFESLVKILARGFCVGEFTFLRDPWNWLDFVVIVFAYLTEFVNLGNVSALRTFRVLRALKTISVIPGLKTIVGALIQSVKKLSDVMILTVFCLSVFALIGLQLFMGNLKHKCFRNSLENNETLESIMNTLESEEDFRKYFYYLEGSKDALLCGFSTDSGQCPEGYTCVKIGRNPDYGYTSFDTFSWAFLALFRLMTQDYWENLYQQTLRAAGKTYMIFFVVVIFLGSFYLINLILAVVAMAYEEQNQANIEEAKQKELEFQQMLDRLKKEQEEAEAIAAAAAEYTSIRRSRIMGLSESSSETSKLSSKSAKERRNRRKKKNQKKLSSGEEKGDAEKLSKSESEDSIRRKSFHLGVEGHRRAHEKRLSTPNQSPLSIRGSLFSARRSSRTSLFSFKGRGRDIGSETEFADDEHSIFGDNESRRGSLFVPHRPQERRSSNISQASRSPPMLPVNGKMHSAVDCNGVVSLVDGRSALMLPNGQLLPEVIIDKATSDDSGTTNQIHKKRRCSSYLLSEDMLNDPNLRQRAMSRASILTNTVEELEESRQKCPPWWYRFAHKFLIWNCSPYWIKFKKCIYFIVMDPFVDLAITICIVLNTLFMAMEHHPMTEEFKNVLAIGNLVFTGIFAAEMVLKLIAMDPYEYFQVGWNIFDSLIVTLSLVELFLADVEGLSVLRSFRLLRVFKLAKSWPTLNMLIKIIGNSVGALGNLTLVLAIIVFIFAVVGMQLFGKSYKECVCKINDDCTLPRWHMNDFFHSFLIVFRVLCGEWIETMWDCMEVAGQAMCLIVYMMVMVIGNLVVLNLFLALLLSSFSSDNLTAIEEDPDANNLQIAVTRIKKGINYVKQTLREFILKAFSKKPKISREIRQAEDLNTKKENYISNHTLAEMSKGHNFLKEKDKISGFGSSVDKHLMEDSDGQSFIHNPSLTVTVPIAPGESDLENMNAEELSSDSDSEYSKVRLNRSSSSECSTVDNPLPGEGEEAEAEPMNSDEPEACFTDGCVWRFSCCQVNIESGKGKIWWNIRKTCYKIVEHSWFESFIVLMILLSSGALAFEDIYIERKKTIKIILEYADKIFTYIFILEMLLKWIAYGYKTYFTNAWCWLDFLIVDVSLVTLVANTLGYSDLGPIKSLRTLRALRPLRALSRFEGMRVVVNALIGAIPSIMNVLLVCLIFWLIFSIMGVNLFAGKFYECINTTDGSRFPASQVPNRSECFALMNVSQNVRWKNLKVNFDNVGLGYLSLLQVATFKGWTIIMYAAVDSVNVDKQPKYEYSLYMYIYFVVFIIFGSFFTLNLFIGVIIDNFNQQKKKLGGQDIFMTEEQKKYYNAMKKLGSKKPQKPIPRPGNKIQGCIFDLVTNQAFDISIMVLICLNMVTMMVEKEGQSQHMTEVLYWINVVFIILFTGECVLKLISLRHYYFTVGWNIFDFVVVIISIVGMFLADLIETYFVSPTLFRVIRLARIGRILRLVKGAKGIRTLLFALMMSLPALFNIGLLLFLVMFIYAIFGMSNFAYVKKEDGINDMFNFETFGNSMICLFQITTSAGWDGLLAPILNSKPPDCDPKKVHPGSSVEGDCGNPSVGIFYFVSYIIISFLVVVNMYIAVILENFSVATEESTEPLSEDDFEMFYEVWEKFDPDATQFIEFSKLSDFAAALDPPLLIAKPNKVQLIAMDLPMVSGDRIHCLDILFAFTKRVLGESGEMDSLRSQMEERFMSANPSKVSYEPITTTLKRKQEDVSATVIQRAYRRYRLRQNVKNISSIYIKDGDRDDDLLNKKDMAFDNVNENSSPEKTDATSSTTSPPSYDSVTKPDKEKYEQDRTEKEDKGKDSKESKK

| Structure (SMILES) | pIC50 [1] | pIC50 [2] |
| --- | --- | --- |
| O=S(=O)(Nc1nccs1)c1ccc2c(-c3ccc(C(F)(F)F)cc3Br)nccc2c1 [Example 235, 1-(2-BROMO-4-(TRIFLUOROMETHYL)PHENYL)-N-(THIAZOL-2-YL)ISOQUINOLINE-6-SULFONAMIDE] | 7.30 | 6.82 |
| O=S(=O)(Nc1nccs1)c1ccc2c(-c3ccn(-c4ccccc4)c3)nccc2c1 [Example 207, 1-(1-PHENYL-1H-PYRROL-3-YL)-N-(THIAZOL-2-YL)ISOQUINOLINE-6-SULFONAMIDE 2,2,2-TRIFLUOROACETATE] | 5.68 | 5.14 |
| O=S(=O)(Nc1nccs1)c1ccc2c([C@H]3CCCN3C3CCOCC3)cccc2c1 [Example 104, (R)-5-(1-(TETRAHYDRO-2H-PYRAN-4-YL)PYRROLIDIN-2-YL)-N-(THIAZOL-2-YL)NAPHTHALENE-2-SULFONAMIDE COMPOUND WITH DIETHYLAMINE (1:1)] | 7.10 | 5.70 |
| COC(=N)c1cc(C(F)(F)F)ccc1-c1nccc2cc(S(=O)(=O)Nc3nccs3)ccc12 [Example 226, METHYL 2-(6-(N-(THIAZOL-2-YL)SULFAMOYL)ISOQUINOLIN-1-YL)-5-(TRIFLUOROMETHYL)BENZIMIDATE] | 7.05 | 6.22 |
| O=S(=O)(Nc1ccncn1)c1ccc2c(-c3ccc(C(F)(F)F)cc3-n3ccnc3)cccc2c1 [Example 121] | 7.52 | 6.06 |
| O=S(=O)(Nc1nccs1)c1ccc2c(-c3ccc(C(F)(F)F)cc3CC(O)CO)nccc2c1 (stereo not shown) [Example 230, 1-(2-(2,3-DIHYDROXYPROPYL)-4-(TRIFLUOROMETHYL)PHENYL)-N-(THIAZOL-2-YL)ISOQUINOLINE-6-SULFONAMIDE 2,2,2-TRIFLUOROACETATE] | 7.52 | 6.23 |
| COc1cc(C(F)(F)F)ccc1-c1nncc2cc(S(=O)(=O)Nc3ccncn3)ccc12 [Example 254, 1-(2-METHOXY-4-(TRIFLUOROMETHYL)PHENYL)-N-(PYRIMIDIN-4-YL)PHTHALAZINE-6-SULFONAMIDE] | 6.59 | 5.28 |
| O=S(=O)(Nc1nccs1)c1ccc2c(N3CCC[C@H]3c3ccccc3)nccc2c1 [Example 239, (S)-1-(2-PHENYLPYRROLIDIN-1-YL)-N-(THIAZOL-2-YL)ISOQUINOLINE-6-SULFONAMIDE] | 5.84 | 5.34 |
| O=S(=O)(Nc1nccs1)c1ccc2c(-c3ccc(C(F)(F)F)cc3Cl)ccnc2c1 [Example 278, 4-(2-CHLORO-4-(TRIFLUOROMETHYL)PHENYL)-N-(THIAZOL-2-YL)QUINOLINE-7-SULFONAMIDE] | 6.66 | 5.69 |
| O=S(=O)(Nc1nccs1)c1ccc2c(N3CCCC3c3ccccc3)nccc2c1 (stereo not shown) [Example 237, 1-(2-PHENYLPYRROLIDIN-1-YL)-N-(THIAZOL-2-YL)ISOQUINOLINE-6-SULFONAMIDE] | 6.13 | 5.91 |
| CN1CCC(c2cc(C(F)(F)F)ccc2-c2cccc3cc(S(=O)(=O)Nc4ccncn4)ccc23)CC1 [Example 116] | 7.15 | 6.21 |
| Cc1cc(C#N)ccc1-c1nccc2cc(S(=O)(=O)Nc3nccs3)ccc12 [Example 210, 1-(4-CYANO-2-METHYLPHENYL)-N-(THIAZOL-2-YL)ISOQUINOLINE-6-SULFONAMIDE 2,2,2-TRIFLUOROACETATE] | 6.85 | 6.05 |
| Cn1cccc1-c1nccc2cc(S(=O)(=O)Nc3nccs3)ccc12 [Example 244, 1-(1-METHYL-1H-PYRROL-2-YL)-N-(THIAZOL-2-YL)ISOQUINOLINE-6-SULFONAMIDE] | 5.93 | 4.95 |
| O=S(=O)(Nc1ccncn1)c1ccc2c(-c3ccc(C(F)(F)F)cc3)nccc2c1 [Example 141, N-(PYRIMIDIN-4-YL)-1-(4-(TRIFLUOROMETHYL)PHENYL)ISOQUINOLINE-6-SULFONAMIDE] | 5.64 | 4.53 |
| COc1cc(C(F)(F)F)ccc1-c1ncc(F)c2cc(S(=O)(=O)Nc3ccncn3)ccc12 [Example 216, 4-FLUORO-1-(2-METHOXY-4-(TRIFLUOROMETHYL)PHENYL)-N-(PYRIMIDIN-4-YL)ISOQUINOLINE-6-SULFONAMIDE] | 7.40 | 6.25 |
| Cc1cc(Cl)ccc1-c1nccc2cc(S(=O)(=O)Nc3nccs3)ccc12 [Example 209, 1-(4-CHLORO-2-METHYLPHENYL)-N-(THIAZOL-2-YL)ISOQUINOLINE-6-SULFONAMIDE 2,2,2-TRIFLUOROACETATE] | 7.22 | 6.41 |
| COc1cc(Cl)ccc1-c1ccnc2cc(S(=O)(=O)Nc3nccs3)ccc12 [Example 275, 4-(4-CHLORO-2-METHOXYPHENYL)-N-(THIAZOL-2-YL)QUINOLINE-7-SULFONAMIDE] | 7.40 | 6.38 |
| COc1ccccc1-c1ccnc2cc(S(=O)(=O)Nc3nccs3)ccc12 [Example 277, 4-(2-METHOXYPHENYL)-N-(THIAZOL-2-YL)QUINOLINE-7-SULFONAMIDE] | 7.15 | 6.47 |
| O=S(=O)(Nc1ccncn1)c1ccc2c(-c3ccc(C(F)(F)F)cc3Cl)nccc2c1 [Example 156, 1-(2-CHLORO-4-(TRIFLUOROMETHYL)PHENYL)-N-(PYRIMIDIN-4-YL)ISOQUINOLINE-6-SULFONAMIDE] | 6.66 | 5.55 |
| COc1ccc(OC)c(-c2nccc3cc(S(=O)(=O)Nc4ccncn4)ccc23)c1 [Example 147, 1-(2,5-DIMETHOXYPHENYL)-N-(PYRIMIDIN-4-YL)ISOQUINOLINE-6-SULFONAMIDE] | 6.89 | 5.24 |
| COc1cc(C(F)(F)F)ccc1-c1cccc2cc(S(=O)(=O)Nc3ncc(F)s3)ccc12 [Example 107] | 6.48 | 5.48 |
| COc1cc(C(F)(F)F)ccc1-c1cncc2cc(S(=O)(=O)Nc3ccncn3)ccc12 [Example 285, 4-(2-METHOXY-4-(TRIFLUOROMETHYL)PHENYL)-N-(PYRIMIDIN-4-YL)ISOQUINOLINE-7-SULFONAMIDE HYDROCHLORIDE] | 7.40 | 6.24 |

Second part, the compound after the results:

| pIC50 [1] | pIC50 [2] | Structure (SMILES) |
| --- | --- | --- |
| 8.00 | 6.55 | COc1cc(C(F)F)ccc1-c1ncnc2cc(S(=O)(=O)Nc3nccs3)ccc12 [Example 266, 4-(4-(DIFLUOROMETHYL)-2-METHOXYPHENYL)-N-(THIAZOL-2-YL)QUINAZOLINE-7-SULFONAMIDE] |
| 7.40 | 6.20 | COc1cc(C2CC2)ccc1-c1cccc2cc(S(=O)(=O)Nc3ccncn3)ccc12 [Example 125] |
| 7.70 | 6.75 | O=S(=O)(Nc1ccncn1)c1ccc2c(-c3ccc(C(F)(F)F)cc3C3=CCNC3)cccc2c1 [Example 119] |
| 7.52 | 5.80 | COc1ncc(Cl)cc1-c1nccc2cc(S(=O)(=O)Nc3ccncn3)ccc12 [Example 168, 1-(5-CHLORO-2-METHOXYPYRIDIN-3-YL)-N-(PYRIMIDIN-4-YL)ISOQUINOLINE-6-SULFONAMIDE] |
| 7.70 | 6.82 | COc1cc(C(F)(F)F)ccc1-c1nncc2cc(S(=O)(=O)Nc3ncc(F)s3)ccc12 [Example 255, N-(5-FLUOROTHIAZOL-2-YL)-1-(2-METHOXY-4-(TRIFLUOROMETHYL)PHENYL)PHTHALAZINE-6-SULFONAMIDE] |
| 7.40 | 6.02 | COc1cc(C(F)(F)F)ccc1-c1ncnc2cc(S(=O)(=O)Nc3ccncn3)ccc12 [Example 262, 4-(2-METHOXY-4-(TRIFLUOROMETHYL)PHENYL)-N-(PYRIMIDIN-4-YL)QUINAZOLINE-7-SULFONAMIDE] |
| 7.40 | 6.22 | COc1cc(C(F)(F)F)ccc1-c1cncc2cc(S(=O)(=O)Nc3nccs3)ccc12 [Example 288, 4-(2-METHOXY-4-(TRIFLUOROMETHYL)PHENYL)-N-(THIAZOL-2-YL)ISOQUINOLINE-7-SULFONAMIDE] |
| 8.00 | 6.90 | O=S(=O)(Nc1ccncn1)c1ccc2c(-c3ccc(C(F)(F)F)cc3C3CCNCC3)cccc2c1 [Example 120] |
| 8.00 | 6.60 | COc1ccccc1-c1ncc(F)c2cc(S(=O)(=O)Nc3nccs3)ccc12 [Example 211, 4-FLUORO-1-(2-METHOXYPHENYL)-N-(THIAZOL-2-YL)ISOQUINOLINE-6-SULFONAMIDE] |
| 8.00 | 6.53 | COc1cc(C(F)(F)F)ccc1-c1nccc2cc(S(=O)(=O)Nc3nccs3)ccc12 [Example 196, 1-(2-METHOXY-4-(TRIFLUOROMETHYL)PHENYL)-N-(THIAZOL-2-YL)ISOQUINOLINE-6-SULFONAMIDE] |
| 7.52 | 5.95 | COc1cc2ccccc2cc1-c1nccc2cc(S(=O)(=O)Nc3ccncn3)ccc12 [Example 155, 1-(3-METHOXYNAPHTHALEN-2-YL)-N-(PYRIMIDIN-4-YL)ISOQUINOLINE-6-SULFONAMIDE] |
| 7.52 | 6.57 | COc1cc(C(F)(F)F)ccc1-c1ncc(F)c2cc(S(=O)(=O)Nc3nccs3)ccc12 [Example 212, 4-FLUORO-1-(2-METHOXY-4-(TRIFLUOROMETHYL)PHENYL)-N-(THIAZOL-2-YL)ISOQUINOLINE-6-SULFONAMIDE] |
| 7.52 | 6.13 | COCc1cc(C(F)(F)F)ccc1-c1nccc2cc(S(=O)(=O)Nc3nccs3)ccc12 [Example 225, 1-(2-(METHOXYMETHYL)-4-(TRIFLUOROMETHYL)PHENYL)-N-(THIAZOL-2-YL)ISOQUINOLINE-6-SULFONAMIDE] |
